{"source": "paper PMC8945814", "about": "“The Pyrazolo[3,4-d]Pyrimidine Derivative Si306 Encapsulated into Anti-GD2-Immunoliposomes as Therapeutic Treatment of Neuroblastoma” (Biomedicines, 2022)", "key": {"[1]": {"design": "method as in PMID 31248184", "conditions": "25 mg/kg, free compound in vivo; cited from earlier work"}, "c-Src tyrosine kinase": {"molecular_target": "c-Src tyrosine kinase", "conditions": "cited from earlier work"}, "non-tumoral cells": {"system": "non-tumoral cells", "conditions": "cited from earlier work"}, "SH-SY5Y": {"system": "SH-SY5Y", "experiment": "MTT cytotoxicity assay", "format": "cell-based", "conditions": "Homo sapiens, 24 h exposure, 96 h total, ± S.D.", "procedure": "(§1) Cytotoxicity experiments were performed to evaluate the effectiveness of Si306, either free (dissolved in DMSO) or encapsulated into untargeted and GD2-targeted liposomes. Briefly, IMR-32, HTLA-230 and SH-SY5Y cells were seeded in 96-well plates (8 × 10^3 cells/well). Human fibroblasts were used as GD2-negative healthy control cells (5 × 10^3 cells/well). The day after seeding, cells were incubated with increasing concentration of Si306 (0.1, 1.0, 10.0 and, 100.0 μM) either free or liposomes-encapsulated, for 24 h at 37 °C. Cells were then washed twice with PBS before replacing them with fresh complete medium and incubating for an additional 72 h (total incubation time equal to 96 h). At the end of the incubation, the MTT (Sigma) assay was performed. The tetrazolium dye was added, then plates were incubated for 3–4 h at 37 °C; formazan crystals were then dissolved in acid isopropanol, and then the optical density of the stained solution was quantified by the use of a Multiskan™ FC Microplate Photometer (Thermo Fisher Scientific Italia, Monza, Italy) at the dual wavelengths of 570 and 650 nm."}, "IMR-32": {"system": "IMR-32", "experiment": "MTT cytotoxicity assay", "format": "cell-based", "conditions": "Homo sapiens, 24 h exposure, 96 h total, ± S.D.", "procedure": "as §1"}, "HTLA-230": {"system": "HTLA-230", "experiment": "MTT cytotoxicity assay", "format": "cell-based", "conditions": "Homo sapiens, 24 h exposure, 96 h total, ± S.D.", "procedure": "as §1"}, "[2]": {"system": "subcutaneous NB animal model", "conditions": "oral administration; cited from earlier work"}, "[3]": {"conditions": "cited from earlier work"}}, "data": [{"smiles": "ClC(Cn1ncc2c(Nc3cccc(Br)c3)nc(SCCN3CCOCC3)nc21)c1ccccc1", "note": "(centres unmarked) [Si306]", "values": [{"measurement": "signs of toxicity", "setting": "[1]", "result": "without signs of toxicity"}, {"measurement": "Ki", "setting": "c-Src tyrosine kinase", "result": 130, "unit": "nM"}, {"measurement": "activity in non-tumoral cells", "setting": "non-tumoral cells", "result": "negligible activity"}, {"measurement": "IC50", "setting": "SH-SY5Y", "result": "19.6 ± 0.7", "unit": "µM"}, {"measurement": "IC50", "setting": "IMR-32", "result": "5.9 ± 1.4", "unit": "µM"}, {"measurement": "IC50", "setting": "HTLA-230", "result": "2900 ± 300", "unit": "nM"}, {"measurement": "tumor growth", "setting": "[2]", "result": "delay of tumor growth"}, {"measurement": "water solubility", "setting": "[3]", "result": "low water solubility"}]}]}
